PubChem BioAssay AID330 (DTP/NCI, 2004)
“And” between values parts separate entries of the source, which are not always exact repeats. Equal values may be shown once. Toxic doses and inconclusive results are not listed. The calls were made as follows: active = survival T/C of 150% or more; inactive = T/C below 125% in these data.

System: P388 leukemia ip, CD2F1 mice, survival T/C
Experiment: NCI In Vivo Anticancer Drug Screen. Data for tumor model P388 Leukemia (intraperitoneal) in CD2F1 (CDF1) mice
Conditions: endpoint: median survival time, higher = longer survival
Outline: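 Mice carrying the transplanted tumor received test compound or vehicle. Survival was recorded in each group, and the value is the treated-group measurement divided by that of the vehicle-treated control group.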

[1] = dose: 50.0 mg/kg/injection, schedule: Q01DX005 (ip), vehicle: saline
[2] = dose: 100.0 mg/kg/injection, schedule: Q01DX005 (ip), vehicle: saline
[3] = dose: 200.0 mg/kg/injection, schedule: Q01DX005 (ip), vehicle: saline
[4] = dose: 50.0 mg/kg/injection, schedule: Q01DX005 (ip), vehicle: Klucel (hydroxypropylcellulose) (HPC)
[5] = dose: 100.0 mg/kg/injection, schedule: Q01DX005 (ip), vehicle: Klucel (hydroxypropylcellulose) (HPC)
[6] = dose: 200.0 mg/kg/injection, schedule: Q01DX005 (ip), vehicle: Klucel (hydroxypropylcellulose) (HPC)
[7] = dose: 12.5 mg/kg/injection, schedule: Q01DX009 (ip), vehicle: saline
[8] = dose: 25.0 mg/kg/injection, schedule: Q01DX009 (ip), vehicle: saline
[9] = dose: 50.0 mg/kg/injection, schedule: Q01DX009 (ip), vehicle: saline
[10] = dose: 100.0 mg/kg/injection, schedule: Q01DX009 (ip), vehicle: saline
[11] = dose: 200.0 mg/kg/injection, schedule: Q01DX009 (ip), vehicle: saline
[12] = dose: 50.0 mg/kg/injection, schedule: Q01DX005 (ip), vehicle: saline with Tween-80
[13] = dose: 100.0 mg/kg/injection, schedule: Q01DX005 (ip), vehicle: saline with Tween-80

Measured: T/C

CCCCOP(O)(=S)OCCCC
inactive: dose: 100.0 mg/kg/injection, schedule: Q04DX002 (ip), vehicle: saline with Tween-80 108 % of control | dose: 100.0 mg/kg/injection, schedule: Q04DX003 (ip), vehicle: saline with Tween-80 105 % of control and 100 % of control | dose: 200.0 mg/kg/injection, schedule: Q04DX002 (ip), vehicle: saline with Tween-80 104 % of control | dose: 200.0 mg/kg/injection, schedule: Q04DX003 (ip), vehicle: saline with Tween-80 106 % of control and 100 % of control | dose: 400.0 mg/kg/injection, schedule: Q04DX002 (ip), vehicle: saline with Tween-80 95 % of control | dose: 400.0 mg/kg/injection, schedule: Q04DX003 (ip), vehicle: saline with Tween-80 101 % of control and 106 % of control

O=CN1CCc2cc3c(cc2C1Cc1cc2c(cc1Br)OCO2)OCO3 (stereo unspecified)
inactive: dose: 25.0 mg/kg/injection, schedule: Q01DX001 (ip), vehicle: saline + alcohol 99 % of control | dose: 50.0 mg/kg/injection, schedule: Q01DX001 (ip), vehicle: saline + alcohol 103 % of control | dose: 100.0 mg/kg/injection, schedule: Q01DX001 (ip), vehicle: saline + alcohol 100 % of control

CC(=O)OC1=C2C(C)(C)OC3CC(=O)OCC23C2CCC3(C)C(c4ccoc4)OC(=O)C4OC43C2(C)C1=O (stereo unspecified)
inactive: dose: 0.5 mg/kg/injection, schedule: Q01DX009 (ip), vehicle: saline + alcohol 113 % of control | dose: 1.0 mg/kg/injection, schedule: Q01DX009 (ip), vehicle: saline + alcohol 110 % of control | dose: 2.0 mg/kg/injection, schedule: Q01DX009 (ip), vehicle: saline + alcohol 107 % of control | dose: 4.0 mg/kg/injection, schedule: Q01DX009 (ip), vehicle: saline + alcohol 101 % of control

CCN(CC)CCNC(=O)CCC(=O)O
inactive: [1] 102 % of control | [2] 100 % of control | [3] 100 % of control

O=C1CCC2C(=O)OCC12 (stereo unspecified)
inactive: dose: 50.0 mg/kg/injection, schedule: Q04DX002 (ip), vehicle: saline 99 % of control | dose: 100.0 mg/kg/injection, schedule: Q04DX002 (ip), vehicle: saline 101 % of control | dose: 200.0 mg/kg/injection, schedule: Q04DX002 (ip), vehicle: saline 94 % of control | dose: 400.0 mg/kg/injection, schedule: Q04DX002 (ip), vehicle: saline 100 % of control

C/C(=C\c1ccc(Cl)cc1)C(=O)N1CCN(c2ccccc2)CC1
inactive: [4] 105 % of control | [5] 91 % of control | [6] 96 % of control

OC[C@@H]1CCCN2CCCC[C@H]12
inactive: dose: 6.2 mg/kg/injection, schedule: Q01DX007 (ip), vehicle: carboxymethylcellulose (CMC) 91 % of control | dose: 12.5 mg/kg/injection, schedule: Q01DX007 (ip), vehicle: carboxymethylcellulose (CMC) 91 % of control | dose: 25.0 mg/kg/injection, schedule: Q01DX007 (ip), vehicle: carboxymethylcellulose (CMC) 91 % of control

O=C1C=C(O)CC(c2ccccc2)N1 (stereo unspecified)
inactive: [4] 102 % of control | [5] 104 % of control | [6] 108 % of control

N#Cc1cccnc1.NCCNCCN.[Br-].[Pt+4]
inactive: [7] 100 % of control | [8] 96 % of control | [9] 105 % of control | [10] 103 % of control | [11] 102 % of control

COC(=O)C1=C(C(=O)OC)C2CC3C4CC=C5CC(OC(C)=O)CCC5(C)C4CCC3(C)C2=C(OC(C)=O)C1 (stereo unspecified)
inactive: [12] 90 % of control | [13] 87 % of control

CC(CCC(=O)O)(c1ccc(OC(=O)Nc2cccc([N+](=O)[O-])c2)cc1)c1ccc(OC(=O)Nc2cccc([N+](=O)[O-])c2)cc1
inactive: [12] 98 % of control | [13] 91 % of control

O=[N+]([O-])c1ccc(OCS(=O)(=O)c2ccc(Cl)cc2)cc1
inactive: dose: 50.0 mg/kg/injection, schedule: Q01DX009 (ip), vehicle: saline with Tween-80 95 % of control | dose: 100.0 mg/kg/injection, schedule: Q01DX009 (ip), vehicle: saline with Tween-80 92 % of control | dose: 200.0 mg/kg/injection, schedule: Q01DX009 (ip), vehicle: saline with Tween-80 95 % of control

C[N+](C)(C)CCCO
inactive: [7] 98 % of control | [8] 94 % of control | [9] 93 % of control

COc1ccc(C(=S=O)N(C)c2ccccc2)cc1
inactive: [9] 100 % of control | [10] 100 % of control | [11] 90 % of control

C/C(=N\NC1=NCCN1)c1cn(C2=NCCN2)nc1C
inactive: dose: 15.0 mg/kg/injection, schedule: Q01DX005 (ip), vehicle: saline 99 % of control | dose: 30.0 mg/kg/injection, schedule: Q01DX005 (ip), vehicle: saline 97 % of control | dose: 60.0 mg/kg/injection, schedule: Q01DX005 (ip), vehicle: saline 102 % of control and 106 % of control

c1cc[c]([Sn]([O][Sn]([c]2ccccc2)([c]2ccccc2)[c]2ccccc2)([c]2ccccc2)[c]2ccccc2)cc1
inactive: dose: 0.38 mg/kg/injection, schedule: Q04DX003 (ip), vehicle: saline 110 % of control | dose: 0.75 mg/kg/injection, schedule: Q04DX003 (ip), vehicle: saline 113 % of control | dose: 1.5 mg/kg/injection, schedule: Q04DX003 (ip), vehicle: saline 98 % of control | dose: 3.13 mg/kg/injection, schedule: Q04DX003 (ip), vehicle: Klucel (hydroxypropylcellulose) (HPC) 90 % of control | dose: 6.25 mg/kg/injection, schedule: Q04DX003 (ip), vehicle: saline with Tween-80 105 % of control

CC1=C(C)C(=O)C2=C(OCCO2)C1=O
inactive: dose: 15.0 mg/kg/injection, schedule: Q01DX005 (ip), vehicle: Klucel (hydroxypropylcellulose) (HPC) 100 % of control | dose: 30.0 mg/kg/injection, schedule: Q01DX005 (ip), vehicle: Klucel (hydroxypropylcellulose) (HPC) 106 % of control | dose: 60.0 mg/kg/injection, schedule: Q01DX005 (ip), vehicle: Klucel (hydroxypropylcellulose) (HPC) 104 % of control

FC(F)(F)c1ccc(C2(c3ccccc3)C=C(c3ccccc3)SC(c3ccccc3)=C2)cc1
inactive: dose: 50.0 mg/kg/injection, schedule: Q01DX009 (ip), vehicle: Klucel (hydroxypropylcellulose) (HPC) 102 % of control | dose: 100.0 mg/kg/injection, schedule: Q01DX009 (ip), vehicle: Klucel (hydroxypropylcellulose) (HPC) 94 % of control | dose: 200.0 mg/kg/injection, schedule: Q01DX009 (ip), vehicle: Klucel (hydroxypropylcellulose) (HPC) 97 % of control

Nc1nnc(SCCCCCCCCCCCCSc2nnc(N)s2)s1
inactive: dose: 12.5 mg/kg/injection, schedule: Q01DX005 (ip), vehicle: Klucel (hydroxypropylcellulose) (HPC) 91 % of control | dose: 25.0 mg/kg/injection, schedule: Q01DX005 (ip), vehicle: Klucel (hydroxypropylcellulose) (HPC) 90 % of control | [4] 89 % of control | [6] 86 % of control

C/C(N=NC(=S)N1CCCC1)=C1\C=CC=CN1O
inactive: [12] 106 % of control | [13] 103 % of control | dose: 200.0 mg/kg/injection, schedule: Q01DX005 (ip), vehicle: saline with Tween-80 112 % of control

NC(CSSCC(N)C(=O)NCC(=O)O)C(=O)NCC(=O)O (stereo unspecified)
inactive: [1] 106 % of control | [2] 100 % of control | [3] 104 % of control
